In this experiment the target is human recombinant 5-HT2A receptor (Homo sapiens (Human), UniProt P28223). In words: Determination of Ki value at 5-HT2A receptor ([3H]-Ketanserine radioligand binding). The method, then:
Determination of Ki Value at 5-HT2A Receptor
Compound was tested according to the following procedures.
Receptor source: Recombinant mammalian cells
Radioligand: [^3H]-Ketanserine (47.3 Ci/mmol)
Final ligand concentration—[1.75 nM]
Non-Specific Ligand: 0.1 mM 1-Naphthylpiperazine (1-NP)
Reference compound: 1-Naphthylpiperazine (1-NP)
Positive control: 1-Naphthylpiperazine (1-NP)
Incubation conditions: Reactions were carried out in 67 mM Tris-HCl (pH 7.4) for 1 hour at 37° C. The reaction was terminated by rapid vacuum filtration onto the glass fiber filters. Radioactivity trapped onto the filters was determined and compared to the control values in order to ascertain any interactions of the test compound(s) with the cloned serotonin 5-HT2A binding site. Reference: Methods in Molecular Biology, 2002, 190, 31-49 Results:
. The Ki values tabulated below are average of three independent experiments.

Structures can show the parent of a compound that is named as a salt.

Take `COc1ccc2c(c1)c(CN1CCN(C)CC1)cn2S(=O)(=O)c1ccc(F)cc1` [Compound 2, 1-[(4-Fluorophenyl)sulfonyl]-5-methoxy-3-[(4-methyl-1-piperazinyl)methyl]-1H-indole dihydrochloride]: the Ki (in general, a measure of affinity in units of concentration, obtained from inhibition or displacement) was greater than 10 µM.
